± gives the uncertainty stated by the source.
Assay: xn = mol fraction of the nth substance listed
Settings: 100 kPa

NCCCN + OCCCO
viscosity [mPa·s]
Settings	293.15 K	298.15 K	303.15 K	308.15 K	313.15 K	318.15 K
x2 = 0.0488	2.48 ± 0.042	2.207 ± 0.037	1.884 ± 0.032	1.707 ± 0.029	1.513 ± 0.025	1.454 ± 0.024
x2 = 0.0977	3.266 ± 0.055	2.887 ± 0.048	2.418 ± 0.041	2.17 ± 0.036	1.888 ± 0.032	1.837 ± 0.031
x2 = 0.1467	4.261 ± 0.071	3.71 ± 0.062	3.095 ± 0.052	2.765 ± 0.046	2.395 ± 0.04	2.296 ± 0.038
x2 = 0.1958	5.561 ± 0.093	5.116 ± 0.086	3.988 ± 0.067	3.529 ± 0.059	3.071 ± 0.051	2.924 ± 0.049
x2 = 0.2451	7.784 ± 0.13	6.598 ± 0.11	5.35 ± 0.09	4.639 ± 0.078	3.944 ± 0.066	3.722 ± 0.062
x2 = 0.2945	10.96 ± 0.18	9.104 ± 0.15	7.198 ± 0.12	6.175 ± 0.1	5.145 ± 0.086	–
x2 = 0.3441	15.12 ± 0.25	12.35 ± 0.2	9.637 ± 0.16	8.272 ± 0.14	6.698 ± 0.11	–
x2 = 0.3937	20.61 ± 0.34	16.58 ± 0.27	12.78 ± 0.21	10.64 ± 0.18	8.698 ± 0.14	–
x2 = 0.4435	27.49 ± 0.45	22.54 ± 0.37	17.07 ± 0.28	14.02 ± 0.23	11.29 ± 0.19	–
x2 = 0.4934	37.54 ± 0.62	29.33 ± 0.48	21.87 ± 0.36	17.83 ± 0.29	14.16 ± 0.23	–
x2 = 0.5435	48.19 ± 0.79	37.19 ± 0.61	27.63 ± 0.45	22.21 ± 0.36	17.49 ± 0.29	–
x2 = 0.5937	59.37 ± 0.96	45.53 ± 0.74	33.45 ± 0.55	26.75 ± 0.44	20.06 ± 0.33	–
x2 = 0.644	68.67 ± 1.1	52.73 ± 0.84	38.69 ± 0.63	30.9 ± 0.5	24.13 ± 0.39	–
x2 = 0.6945	75.47 ± 1.3	57.65 ± 0.92	42.48 ± 0.69	34 ± 0.55	26.62 ± 0.43	–
x2 = 0.745	77.45 ± 1.3	60.06 ± 0.97	44.62 ± 0.73	35.77 ± 0.58	28.05 ± 0.46	–
x2 = 0.7958	76.36 ± 1.3	59.6 ± 0.96	44.73 ± 0.73	36.13 ± 0.59	28.42 ± 0.46	–
x2 = 0.8466	71.94 ± 1.2	56.84 ± 0.91	42.88 ± 0.7	34.89 ± 0.57	27.77 ± 0.45	–
x2 = 0.8976	66.38 ± 1.1	52.57 ± 0.83	40 ± 0.65	32.8 ± 0.53	26.28 ± 0.43	–
x2 = 0.9487	59.47 ± 0.96	47.41 ± 0.77	36.34 ± 0.59	30.05 ± 0.49	24.3 ± 0.4	–

Source: the CheMixHub viscosity set
